# Test results published in patent US11091429B2, “Organic compounds” (Givaudan SA, priority 2012, dated 2021).
# Entries after “also recorded” stand apart in the source; their conditions may differ.
# Legend:
# [1] = Tasting in low fat mayonnaise; conditions: 0.5 ppm in low fat mayonnaise (27% fat)
# Description: (§1) The following formulations were prepared and tasted by trained panelists.
# Low fat Mayonnaise (27% Fat, 9% carbohydrates (of which 5% sugar), 1.4% salt)
# (§2) Samples were prepared and evaluated by expert tasters. Tasters were asked to describe the samples focusing on authentic taste, mouthfeel, fullness, salty-ness, salivation, umami, sweetness, juiciness, richness, long lastingness and fattiness.
# Calve 60% Reduced Fat Mayonnaise
# Base is Calve Mayonnaise 60% reduced fat (market Product)
# (§3) Samples were prepared and evaluated by expert tasters. Tasters were asked to describe the samples focusing on authentic taste, mouthfeel, fullness, salivation, salty-ness, umami, sweetness, juiciness, richness, long lastingness and fattiness.
# Low fat Mayonnaise (27% Fat)
# [2] = Tasting in spreadable cheese; conditions: 0.5 PPM in spreadable cheese (Eru)
# Description: as §1, §2
# Test on “Eru Prestige” Spreadable Cheese
# Base is Eru prestige (market product)
# as §3
# [3] = Tasting on air expanded base; conditions: 3% fat, cheese seasoning
# Description: as §1
# An air expanded base (Rice, wheat, Tapioca, potato, salt, sugar, modified starch), containing 3% fat and flavored with cheese seasoning containing salt, MSG, dairy, organic acids, sugars and flavor. The following compounds were added to the base at the indicated levels and the tasting results are reported: […]
# [4] = Tasting in cheese sauce; conditions: 0.5 PPM in cheese sauce 5% fat 1.6% salt
# Description: as §1
# Cheese sauce: 5% fat 1.6% salt
# as §3
# Cheese Sauce: 5% Fat 1.6% Salt
# [5] = Tasting in fish sauce; conditions: 0.5 ppm in pure fish sauce (27% salt)
# Description: as §1
# (§4) Salt level pure product between 5-40%
# (§5) Salt level in application 0.3-1.0%
# as §3
# [6] = Tasting in low fat salad dressing; conditions: 0.5 ppm in low fat salad dressing (13.6% fat)
# Description: as §1
# low fat salad dressing (13.6% Fat, 8%, carbohydrates (of which 5.3% sugar))
# as §2
# Calve Salad Dressing Low Fat (13.6% Fat):
# Base is Calve salad dressing (market product)
# as §3
# Low fat salad dressing (13.6% Fat)
# [7] = Tasting in chicken bouillon; conditions: 0.7% salt, 0.5% fat
# Description: as §1
# Standard Chicken bouillon base, 0.7% salt, 0.5% fat
# as §3
# Test in Soups and Bouillons
# Standard Chicken Bouillon Base
# [8] = Tasting in soy sauce; conditions: 0.5 ppm in pure salt reduced kikoman soy sauce (9% salt)
# Description: as §1, §4, §5, §2
# Test on Kikkoman Soy Sauce Low Salt
# Base is Kikkoman soy sauce
# as §3
# [9] = Tasting on fried potato snack product; conditions: 35% fat, cheese seasoning
# Description: as §1
# A snack product consisting of a fried potato base, containing 35% fat and flavored with cheese seasoning containing salt, MSG, dairy, organic acids, sugars, and a flavour formulation. The following compounds were added to the snack product at the indicated levels and the tasting results are reported: […]
# [10] = Tasting in beef jus; conditions: 40 PPB in beef jus
# Description: as §1, §3
# [11] = Tasting in vanilla milk 0.15% fat; conditions: 1 ppm, 4% sucrose, Vaniline 10 ppm + vanilla extract 0.03%
# Description: as §2
# Base: Milk 0.15% fat, sweetened with 4% sucrose by weight, flavoured with proprietary
# Vaniline flavour @ 10 ppm+Vanilla ext. @ 0.03%
# (§6) Samples were evaluated by expert tasters. Tasters were asked to describe the samples focusing on authentic taste, mouthfeel, fullness, salty-ness, salivation, umami, sweetness, juiciness, richness, long lastingness and fattiness.
# Comparison in a Vanilla Milk Drink
# Vaniline @ 10 ppm+Vanilla extract @ 0.03%
# Base: Milk 0.15% fat, sweetened with 4% sucrose by weight, flavoured with proprietary Vaniline @ 10 ppm+Vanilla extract @ 0.03%
# [12] = Test in pineapple flavoured drink; conditions: 1 ppm; water, 8% sugar, 0.1% citric acid, pineapple flavour 0.03%
# Description: as §2
# Test in Pineapple Flavoured Drink:
# Base is water, 8% sugar, 0.1% citric acid and proprietary pineapple flavour at 0.03%
# as §6
# [13] = Test in pear flavoured drink; conditions: 1 ppm; water, 7% sugar (8% elsewhere in the source), 0.1% citric acid, pear flavour 0.025%
# Description: as §2
# Test in Pear Flavoured Drink:
# Base: water, 7% sugar, 0.1% citric acid, proprietary pear flavour at 0.025%
# as §6
# Comparison in a Pear Drink
# Base is water, 8% sugar, 0.1% citric acid, proprietary pear flavour at 0.025%
# [14] = Tasting in strawberry drink; conditions: 0.5 ppm; 7% sucrose, 0.1% citric acid, strawberry flavour 0.015%
# Description: as §2
# Comparison in a Strawberry Drink
# Base is 7% sucrose, 0.1% citric acid, and a proprietary strawberry flavour @ 0.015%
# as §6
# Base is water, 7% sucrose, 0.1% citric acid, proprietary strawberry flavour @ 0.015%
# (§7) Samples were evaluated by expert tasters. Tasters were asked to describe the samples focusing on authentic taste, mouthfeel, fullness, salivation, salty-ness, umami, sweetness, juiciness, richness, long lastingness and fattiness.
# Test in a Strawberry Drink
# Base is 7% sucrose, 0.1% citric acid, proprietary strawberry flavour @ 0.015%
# [15] = Tasting in strawberry flavoured sugar sweetened yoghurt; conditions: 2 ppm, 1.5% fat yoghurt, 8% sucrose, strawberry flavour 0.015%
# Description: Strawberry Flavoured Sugar Sweetened Yoghurt
# In a 1.5% fat yoghurt base, sweetened with 8% sucrose by weight, flavoured with a proprietary strawberry flavour @ 0.015% several different N-acyl aminoacids were added.
# as §2
# Test in a Strawberry Yoghurt
# Base: Yoghurt 1.5% fat yoghurt, 8% sucrose, proprietary strawberry flavour @ 0.015%
# as §7
SMILES,tasting result [1],tasting result [2],tasting result ([3]; 0.5 ppm on air expanded base),tasting result ([3]; 1 ppm on air expanded base),tasting result [4],tasting result [5],tasting result [6],tasting result ([7]; 0.2 PPM in chicken bouillon base),tasting result ([7]; 0.5 PPM in chicken bouillon base),tasting result [8],tasting result ([9]; 0.5 ppm on fried potato snack),tasting result ([9]; 1 ppm on fried potato snack),tasting result [10],tasting result [11],tasting result [12],tasting result [13],tasting result [14],tasting result [15]
"CCCCCCCC/C=C\CCCCCCCC(=O)NC1(C(=O)O)CC1 [C18:1-ACCA, N-oleoyl 1-amino-cyclopropyl carboxylic acid]","nicely balanced compositions with a full mouthfeel and a more eggy taste; also recorded: Nice balanced, full mouthfeel, increased eggyness","Strong umami, lingering cheese bite",Increased salty,"Increased Umami, salty","Strong umami, cheese bite, expanding",strong saltiness lingering and with a strong body and mouthfeel,more mouthfeel with body and less acidic; also recorded: Increased mouthfeel body less acidic,"Saltier, Stronger and more umami","More body and fatty notes, salivating and good aftertaste","strong upfront saltiness lingering, very strong saltiness",Increased salty,"Increased Umami, salty","more salty, fatty, total profile is enhanced",–,–,–,–,–
"CCCCC/C=C\C/C=C\CCCCCCCC(=O)N[C@@H](CC(N)=O)C(=O)O [C18:2-asn, N-linoleoyl-Asn]",–,–,–,–,–,–,–,–,–,–,–,–,–,sweeter more fatty round,"very ripe, jammy, long lasting, authentic","very ripe, authentic pear, very juicy, long lasting","fuller, sweeter, jammy aftertaste, long lasting","green fresh, nice, fatty nice fuller"
